The source of these data is patent US20240018470A1, “METHOD OF MANIPULATING PLURIPOTENCY IN CELLS” (YALE UNIVERSITY, priority 2022, published 2024).

Holding throughout (format): in vivo, Xenopus tropicalis
For series [1], the system named is Xenopus embryos. The series is described as follows: Whole mount in situ hybridization for germ layer and pluripotency markers. An excerpt: In order to generate a full-length antisense probe for X. tropicalis kcnh6, kcnh6 cDNA was cloned from stage 45 tadpole whole mRNA using primers […] ID NO:10) and […] ID NO:11) (XM_012952904.1). It was noted that kcnh6 had been misannotated as kcnh2 in the v7.1 model of the X. tropicalis genome (The present study used NCBI Annotation XP_012808358.2 to identify KCNH6). […] GRPs were dissected post fixation and prior to dehydration to detect dandy. To detect putative gene expression in the prospective endoderm (mixer, vegT, kcnh6) gastrula stage embryos were bisected to facilitate better probe access. Briefly, whole mount in situ hybridization of digoxigenin-labeled antisense probes was performed overnight, the labelled embryos were then washed, incubated with anti-digoxigenin-AP Fab fragments (Roche 11093274910), and signal was detected using BM-purple (Roche 11442074001). Normal embryonic medium is 1/9× modified Ringer's (MR) containing 11 mM NaCl, 0.2 mM KCl, 0.2 mM CaCl2), 0.1 mM Mg2Cl and 0.55 mM HEPES. […] For extracellular K^+ manipulations, the KCl concentration in 1/9×MR was modified from 0.2 mM (normal) to 20 mM (high) or 0 mM (low). […] For rapamycin, the present study created a standard stock solution of 50 mg/ml in DMSO. The stock solution was diluted 1:2500 in the appropriate embryonic media (final 20 μg/ml). […] In experiments where embryos were evaluated for phenotypes and scored (gastrulation, left-right patterning, in situ hybridizations) the present study carried out three to five biological replicates and Fisher's exact test to evaluate statistical significance. The animal cap experiment was performed twice with a total score of four to eight animal caps per experiment. […] For whole cell electrophysiological recordings, three to five embryos (two cells each) were examined for their membrane potential and statistical significance was tested by student's t-test. Graphs were designed using GraphPad Prism software. Models were created with BioRender.com.

Series [2] has as its system Xenopus embryos. The series is described as follows: Organ situs (left-right patterning) scoring in stage 45 tadpoles. Conditions: kcnh6 depletion, injected at one-cell stage. How it is done: Stage 45 Xenopus embryos were paralyzed with benzocaine or tricaine and scored with a light stereomicroscope. Cardiac looping was determined by position of the outflow tract; D-loop: rightward, L-loop: leftward; A-loop: midline. Normal intestinal looping was scored as counter-clockwise rotation of the gut, while abnormal intestinal looping was scored as completely inverse gut rotation (clockwise) or complete lack of looping (un-looped). While a completely inverted gut rotation is clearly an abnormality of LR patterning, an unlooped gut is less clear so the present study only considered an unlooped gut as abnormal situs when combined with abnormal placement (left-sided or midline) of the gall bladder. To quantify total abnormal organ situs, each tadpole was counted only once, regardless of whether multiple organs were affected.
(§1) Normal embryonic medium is 1/9× modified Ringer's (MR) containing 11 mM NaCl, 0.2 mM KCl, 0.2 mM CaCl2), 0.1 mM Mg2Cl and 0.55 mM HEPES. To allow Ergtoxin to penetrate the embryos, the present study manually removed the vitelline envelope of stage 8 embryos and incubated embryos in 1/9×MR containing 50 nM Ergtoxin (Alomone STE-450) until stage 12. Embryos were then transferred back into 1/9×MR lacking Ergtoxin to develop until stage 45 in order to score organ situs. Barium chloride was applied into the medium at 20 mM and embryos were thoroughly rinsed in 1/9×MR after each incubation period for further development in Ba2+-free medium. For extracellular K^+ manipulations, the KCl concentration in 1/9×MR was modified from 0.2 mM (normal) to 20 mM (high) or 0 mM (low). The ionophore valinomycin (ACROS) and L-type VGCC blocker Nifedipine (ACROS) were diluted in DMSO as stock solutions and applied to embryos in 1/9×MR at 2 nM and 10 μM respectively. Treatments performed during gastrulation were applied from stage 8 through stage 12, and embryos were then rinsed thoroughly and returned into 1/9×MR. For rapamycin, the present study created a standard stock solution of 50 mg/ml in DMSO. The stock solution was diluted 1:2500 in the appropriate embryonic media (final 20 μg/ml). Embryos were treated at stage 7 and then fixed at stage 11 for in situ hybridization.
(§2) In experiments where embryos were evaluated for phenotypes and scored (gastrulation, left-right patterning, in situ hybridizations) the present study carried out three to five biological replicates and Fisher's exact test to evaluate statistical significance. The animal cap experiment was performed twice with a total score of four to eight animal caps per experiment. For the calcium transient analyses, data was collected from three to five embryos in each experiment in three independent experiments, and statistical analyses on GCaMP/mCherry fluorescence intensity as well as Ca^2+ transient area were performed using student's t-test. For whole cell electrophysiological recordings, three to five embryos (two cells each) were examined for their membrane potential and statistical significance was tested by student's t-test. Graphs were designed using GraphPad Prism software. Models were created with BioRender.com.

The test system of series [3] is Xenopus embryos. Briefly: Gastrulation scoring (incomplete blastopore closure) in treated or kcnh6-depleted embryos. Conditions: kcnh6 depletion, injected at one-cell stage. How it is done: All injections of Xenopus embryos were performed at the one-cell stage using a fine glass needle and Picospritzer system. A kcnh6 translation blocking (kcnh6 MO, 5′-[…]-3′, SEQ ID NO:1) and a scrambled morpholino oligonucleotide were obtained from Gene Tools LLC and injected at 10 ng to deplete kcnh6 or as a control, respectively. CRISPR sgRNAs for kcnh6 targeted either exon 3 or exon 4 based on the v7.1 gene model of the X. tropicalis genome (CRex3: 5′-[…]-3′, SEQ ID NO:2 and CRex4: 5′-[…]-3′, SEQ ID NO:3). CRISPR sgRNAs for cacna1c (5′-[…]-3′, SEQ ID NO:4) and cacna1g (5′-[…]-3′, SEQ ID NO:5) were designed from the v7.1 model of the Xenopus tropicalis genome. For F0 CRISPR knockdown, embryos were injected with 1.5 ng Cas9 Protein (PNA-Bio) and 400 pg of targeting sgRNA and raised to desired stages. […] Full length human KCNH6 (NM 030779.3; cloned in pCS107), GCaMP6 (subcloned in pCSDest) and mCherry cDNAs (Addgene #34935; in pCS2+), were used to generate capped mRNAs in vitro by first linearizing with appropriate restriction enzymes and then transcribing with the mMessage machine kit (Ambion). mRNAs were injected at 3 pg (human KCNH6), 150 pg (GCaMP6) and 150 pg (mCherry) per embryo. Embryos were raised at 21° C. to allow time for sufficient expression levels at blastula/gastrula stages.
as §1, §2

Consider “kcnh6 MO: kcnh6 translation blocking morpholino oligonucleotide, 5′-GGTCCTCGAAGTTTAGGATAAACAT-3′, SEQ ID NO:1 (all phosphorodiamidate morpholino (PMO))”, for which, in series [1] (kcnh6 depleted embryos treated only with DMSO), the “embryos with myf5 lost” value amounted to 35±5%. For the same substance, the “embryos with absent ectodermin” value in series [1] (kcnh6 depleted embryos treated with DMSO) worked out at 51±6%. In addition, the abnormal organ situs in series [2] turned out to be 91±7%. Besides, the “inability to complete gastrulation” value in series [3] amounted to 31±3%.
